# From patent US12595253B2, “Benzamides of pyrazolylamino-pyrimidinyl derivatives, and compositions and methods thereof” (LYNK PHARMACEUTICALS CO. LTD., priority 2019, dated 2026)
# What was measured:
# [1] = Liver microsomes study, Phase I stability (HLM); format: in vitro ADME, human; conditions: pH 7.4; human liver microsomes 0.5 mg/mL, 1 μM test article; read-out: HLM Clint
# Method in brief: (§1)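 Rat or human liver microsomes were incubated with test article, and reactions started with an NADPH regenerating system. Samples at 0, 10, 30 and 90 minutes were quenched with cold acetonitrile and analyzed by LC/MS/MS. T½ and CLint came from the ln(% remaining) versus time slope, scaled by protein concentration.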
# [2] = Rat pharmacokinetic study (intravenous and oral); format: in vivo; conditions: Sprague-Dawley rats, oral, 5 mg/kg, solution
# JAK2 = biological target: T1, JAK2 (Homo sapiens, UniProt O60674); test: JAK2 microfluidic kinase assay (Caliper EZ Reader II, FAM labeled peptide substrate); format: biochemical; conditions: IC50 JAK2 ([…]) (1 mM ATP), 1 mM ATP
# T1 construct: purchased Carna Biosciences
# T1 sequence (O60674 whole entry): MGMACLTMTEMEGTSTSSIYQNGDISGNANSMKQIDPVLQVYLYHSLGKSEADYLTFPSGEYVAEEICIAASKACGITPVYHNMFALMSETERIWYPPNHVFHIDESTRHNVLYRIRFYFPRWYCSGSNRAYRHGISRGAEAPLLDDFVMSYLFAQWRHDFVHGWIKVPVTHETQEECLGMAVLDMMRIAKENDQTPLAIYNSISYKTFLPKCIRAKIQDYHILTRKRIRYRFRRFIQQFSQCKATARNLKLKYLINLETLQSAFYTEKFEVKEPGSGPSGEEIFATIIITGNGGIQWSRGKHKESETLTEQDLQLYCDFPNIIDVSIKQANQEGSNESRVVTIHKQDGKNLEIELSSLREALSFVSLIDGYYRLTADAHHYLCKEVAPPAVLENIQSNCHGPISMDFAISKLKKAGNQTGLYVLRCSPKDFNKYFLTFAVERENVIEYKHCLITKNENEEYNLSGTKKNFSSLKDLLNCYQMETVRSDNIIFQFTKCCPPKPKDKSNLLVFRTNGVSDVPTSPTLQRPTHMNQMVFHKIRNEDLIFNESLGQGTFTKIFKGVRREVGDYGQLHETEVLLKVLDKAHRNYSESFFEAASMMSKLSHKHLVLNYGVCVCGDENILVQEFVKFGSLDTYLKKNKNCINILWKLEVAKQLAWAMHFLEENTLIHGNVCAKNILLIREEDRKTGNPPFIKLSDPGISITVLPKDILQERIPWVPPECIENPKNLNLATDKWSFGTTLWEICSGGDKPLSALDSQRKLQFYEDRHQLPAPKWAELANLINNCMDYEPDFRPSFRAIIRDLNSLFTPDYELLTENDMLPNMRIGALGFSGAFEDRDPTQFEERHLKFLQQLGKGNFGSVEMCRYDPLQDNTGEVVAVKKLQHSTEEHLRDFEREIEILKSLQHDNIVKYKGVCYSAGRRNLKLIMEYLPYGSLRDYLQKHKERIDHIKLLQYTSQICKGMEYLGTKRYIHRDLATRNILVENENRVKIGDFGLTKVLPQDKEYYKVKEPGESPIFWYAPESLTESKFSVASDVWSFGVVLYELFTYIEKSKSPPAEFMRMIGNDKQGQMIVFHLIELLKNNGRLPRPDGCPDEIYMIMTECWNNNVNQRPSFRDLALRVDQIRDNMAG
# Method in brief: (§2)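 Microfluidic mobility-shift assay on Caliper EZ Reader II, FAM-labelled peptide phosphorylation, in 50 mM HEPES, 0.01% Brij35, 10 mM MgCl2, 2 mM DTT, 1% DMSO; enzyme conditions set for 10% substrate conversion.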
# FLT3D835Y = biological target: T2, FLT3D835Y (Homo sapiens, UniProt P36888, D835Y); test: FLT3D835Y microfluidic kinase assay; format: biochemical
# T2 construct: purchased Carna Biosciences
# T2 sequence (P36888 27-993 D835Y): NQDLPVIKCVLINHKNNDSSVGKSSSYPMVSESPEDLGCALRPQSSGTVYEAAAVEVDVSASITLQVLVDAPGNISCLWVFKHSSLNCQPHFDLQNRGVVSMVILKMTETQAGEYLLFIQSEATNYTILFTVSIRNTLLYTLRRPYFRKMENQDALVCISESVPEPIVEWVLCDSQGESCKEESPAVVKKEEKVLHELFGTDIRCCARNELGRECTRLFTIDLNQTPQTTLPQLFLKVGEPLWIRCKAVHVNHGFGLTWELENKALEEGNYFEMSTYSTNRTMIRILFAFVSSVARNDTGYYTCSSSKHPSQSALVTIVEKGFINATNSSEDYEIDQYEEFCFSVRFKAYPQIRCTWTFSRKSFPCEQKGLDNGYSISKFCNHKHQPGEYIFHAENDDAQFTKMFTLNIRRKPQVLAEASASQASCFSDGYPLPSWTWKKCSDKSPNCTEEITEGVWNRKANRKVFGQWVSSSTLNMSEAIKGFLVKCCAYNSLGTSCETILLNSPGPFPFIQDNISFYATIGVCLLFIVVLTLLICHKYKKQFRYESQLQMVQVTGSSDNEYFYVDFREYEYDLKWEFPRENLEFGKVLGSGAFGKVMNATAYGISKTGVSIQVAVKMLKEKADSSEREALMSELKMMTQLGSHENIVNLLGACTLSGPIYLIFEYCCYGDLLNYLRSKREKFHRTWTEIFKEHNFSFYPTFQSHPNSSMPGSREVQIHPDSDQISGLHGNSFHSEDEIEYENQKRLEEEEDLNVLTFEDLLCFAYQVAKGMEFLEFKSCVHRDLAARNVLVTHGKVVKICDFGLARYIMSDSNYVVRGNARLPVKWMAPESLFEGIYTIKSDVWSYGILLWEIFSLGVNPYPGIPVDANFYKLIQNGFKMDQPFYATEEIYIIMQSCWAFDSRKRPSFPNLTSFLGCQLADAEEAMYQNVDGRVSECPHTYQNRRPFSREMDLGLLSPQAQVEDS
# Protocol: Compounds were tested against FLT3, FLT3ITD and FLT3D835Y.
# Assay Formats: FLT3 activity was determined in the reaction buffer 50 mM HEPES, 10 mM MgCl2 and 2 mM DTT by a microfluidic assay. The phosphorylation of a FAM labeled peptide substrate was monitored in the Caliper EZ Reader II (Perkin Elmer). The assay condition for each batch of enzyme (Carna Biosciences) was optimized to obtain 10% conversion rate of peptide substrate.
# The test compounds were dissolved in DMSO to a stock concentration of 10 mM. 3-fold serially diluted compounds with top concentration of 5 μM were pre-incubated with FLT3, FLT3ITD or FLT3D835Y for 10 min at ambient temperature. The final DMSO concentration of assay mixture was 1%. […] The reaction was stopped by adding 50 mM EITA. The reaction time for FLT3, FLT3ITD and FLT3D8335Y was 30 min, 40 min and 40 min, respectively.
# And the well without compound but with equivalent DMSO was defined as no inhibition. The percent inhibition was calculated by the following formula. % Inhibition=(Conversionmax−Conversionsample)/(Conversionmax−Conversionmin)*100 • Conversionmax means the conversion rate in the positive well without addition of compound • Conversionmin means the conversion rate in the well without addition of enzyme • Conversionsample means the conversion rate of test compounds
# The dose-response (percent inhibition) curve was plotted and IC50 values were determined by GraphPad software.
# JAK1 = biological target: T3, JAK1 (Homo sapiens, UniProt P23458); test: JAK1 microfluidic kinase assay (Caliper EZ Reader II, FAM labeled peptide substrate); format: biochemical; conditions: IC50 JAK1 (5 nM) (1 m MATP), JAK1 5 nM, 1 mM ATP
# T3 construct: purchased Carna Biosciences
# T3 sequence (P23458 whole entry): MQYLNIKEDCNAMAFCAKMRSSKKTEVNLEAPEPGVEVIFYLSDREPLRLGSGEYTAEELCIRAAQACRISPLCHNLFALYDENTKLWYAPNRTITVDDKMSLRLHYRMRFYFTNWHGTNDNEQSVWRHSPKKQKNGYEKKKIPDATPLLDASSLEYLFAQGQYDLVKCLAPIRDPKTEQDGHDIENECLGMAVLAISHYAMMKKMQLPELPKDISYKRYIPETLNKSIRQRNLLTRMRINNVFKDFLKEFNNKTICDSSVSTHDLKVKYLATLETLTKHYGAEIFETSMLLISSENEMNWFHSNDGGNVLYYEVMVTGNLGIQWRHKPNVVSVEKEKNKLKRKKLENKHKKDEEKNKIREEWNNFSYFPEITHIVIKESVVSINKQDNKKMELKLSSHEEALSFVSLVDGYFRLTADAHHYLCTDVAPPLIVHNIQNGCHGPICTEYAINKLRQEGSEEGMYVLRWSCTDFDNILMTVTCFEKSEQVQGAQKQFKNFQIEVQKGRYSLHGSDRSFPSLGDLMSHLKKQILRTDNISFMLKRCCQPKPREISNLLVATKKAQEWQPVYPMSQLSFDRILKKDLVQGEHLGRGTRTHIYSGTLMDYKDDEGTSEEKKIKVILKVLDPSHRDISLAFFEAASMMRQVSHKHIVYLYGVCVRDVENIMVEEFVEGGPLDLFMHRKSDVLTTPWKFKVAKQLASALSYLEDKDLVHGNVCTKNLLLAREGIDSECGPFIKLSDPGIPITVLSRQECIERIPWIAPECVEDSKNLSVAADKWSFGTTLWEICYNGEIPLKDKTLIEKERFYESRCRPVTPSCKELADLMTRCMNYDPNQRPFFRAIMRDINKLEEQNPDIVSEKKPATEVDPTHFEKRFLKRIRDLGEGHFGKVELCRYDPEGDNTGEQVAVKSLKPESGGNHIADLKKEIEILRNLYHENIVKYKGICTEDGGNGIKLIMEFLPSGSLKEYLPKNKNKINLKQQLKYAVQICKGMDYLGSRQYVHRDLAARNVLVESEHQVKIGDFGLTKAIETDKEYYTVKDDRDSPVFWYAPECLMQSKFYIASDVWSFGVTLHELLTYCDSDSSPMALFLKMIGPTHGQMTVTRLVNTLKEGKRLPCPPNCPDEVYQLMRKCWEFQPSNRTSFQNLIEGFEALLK
# Method in brief: as §2
# JAK2V617F = biological target: T4, JAK2V617F (Homo sapiens, UniProt O60674, V617F); test: JAK2V617F microfluidic kinase assay (Caliper EZ Reader II, FAM labeled peptide substrate); format: biochemical; conditions: JAK2V617F 2.5 nM, 1 mM ATP
# T4 construct: purchased Carna Biosciences
# T4 sequence (O60674 whole entry V617F): as the sequence (O60674 whole entry) above, with V617F counted along it
# Method in brief: as §2
# [3] = Liver microsomes study, Phase I stability (RLM); format: in vitro ADME, rat; conditions: pH 7.4; rat liver microsomes 0.5 mg/mL, 1 μM test article; read-out: RLM Clint
# Method in brief: as §1
# [4] = Rat pharmacokinetic study (intravenous and oral); format: in vivo; conditions: male, plasma, Sprague-Dawley rats, solution
# Protocol: Pharmacokinetic profile of test articles in rodent were evaluated in fasted male ICR mouse and Sprague-Dawley rats. […] Typically, mice were dosed with 2 mg/kg and 10 mg/kg by intravenous injection and oral gavage, respectively. Rats were dosed with 1 mg/kg and 5 mg/kg by intravenous injection and oral gavage, respectively. Beagle dogs were dosed with 1 mg/kg and 5 mg/kg by intravenous injection and oral gavage, respectively. After dosing, blood samples were collected at each time point. For IV injection group, time points were set at 5, 15, 30 min, and then 1, 2, 4, 8 and 24 hours after dosing. For oral gavage group, timepoints were set at 15, 30 m, and then 1, 2, 4, 8, and 24 hours. Blood was collected into appropriately labeled tubes containing K2EDTA as the anticoagulant. Plasma was obtained within 1 hours of blood collection by centrifugation at 8000×g and 4° C. for 6 minutes, and then stored at −20° C. until analyzed by LCMS/MS for quantification.
# [5] = Mini-pig dermal pharmacokinetic study; format: in vivo, Guangxi Bama mini-pigs; conditions: topical administration
# Excerpt: The aim of this study was to obtain the topical distribution of test articles in mini-pig after topical administration. Test articles were formulated in 50% PEG400, 10% transcutol and 40% PEG3350 (50% in water), and then applied to male Guangxi Bama mini-pigs (17-20 kg). Twenty-four hour prior to dosing, the hair of the mini-pig was shaved in left and right sides of the back. Two areas at least 5 cm apart at each side of the back were exposed (a total of four areas, each of which was about 112 cm^2). At the time zero, the test article was dosed to the exposed skins with […]. After dosing, the blood and skin samples were collected at 0.5, 1, 3, 6 hour. The blood was taken via venipuncture, and collected to the tubes containing heparin sodium as the anticoagulant. Exposed skin was washed with soap and water before skin sample was collected. Upon the dosed skin the punch biopsy from the epidermis layer to the muscle layer were taken at each time point. Epidermis, dermis, subcutis and subcutaneous muscle were quickly separated, weighed and frozen in dry ice. Epidermis and dermis were homogenized in 1:3 (w/v) normal saline. Homogenized samples were extracted with 3 fold volumes of acetonitrile and quantified against a standard curve with LC-MS/MS system.
# TYK2 = biological target: T5, TYK2 (Homo sapiens, UniProt P29597); test: TYK2 microfluidic kinase assay (Caliper EZ Reader II, FAM labeled peptide substrate); format: biochemical; conditions: IC50 TYK2 ([…]) (1 mM ATP), TYK2 […], 1 mM ATP
# T5 construct: purchased Carna Biosciences
# T5 sequence (P29597 whole entry): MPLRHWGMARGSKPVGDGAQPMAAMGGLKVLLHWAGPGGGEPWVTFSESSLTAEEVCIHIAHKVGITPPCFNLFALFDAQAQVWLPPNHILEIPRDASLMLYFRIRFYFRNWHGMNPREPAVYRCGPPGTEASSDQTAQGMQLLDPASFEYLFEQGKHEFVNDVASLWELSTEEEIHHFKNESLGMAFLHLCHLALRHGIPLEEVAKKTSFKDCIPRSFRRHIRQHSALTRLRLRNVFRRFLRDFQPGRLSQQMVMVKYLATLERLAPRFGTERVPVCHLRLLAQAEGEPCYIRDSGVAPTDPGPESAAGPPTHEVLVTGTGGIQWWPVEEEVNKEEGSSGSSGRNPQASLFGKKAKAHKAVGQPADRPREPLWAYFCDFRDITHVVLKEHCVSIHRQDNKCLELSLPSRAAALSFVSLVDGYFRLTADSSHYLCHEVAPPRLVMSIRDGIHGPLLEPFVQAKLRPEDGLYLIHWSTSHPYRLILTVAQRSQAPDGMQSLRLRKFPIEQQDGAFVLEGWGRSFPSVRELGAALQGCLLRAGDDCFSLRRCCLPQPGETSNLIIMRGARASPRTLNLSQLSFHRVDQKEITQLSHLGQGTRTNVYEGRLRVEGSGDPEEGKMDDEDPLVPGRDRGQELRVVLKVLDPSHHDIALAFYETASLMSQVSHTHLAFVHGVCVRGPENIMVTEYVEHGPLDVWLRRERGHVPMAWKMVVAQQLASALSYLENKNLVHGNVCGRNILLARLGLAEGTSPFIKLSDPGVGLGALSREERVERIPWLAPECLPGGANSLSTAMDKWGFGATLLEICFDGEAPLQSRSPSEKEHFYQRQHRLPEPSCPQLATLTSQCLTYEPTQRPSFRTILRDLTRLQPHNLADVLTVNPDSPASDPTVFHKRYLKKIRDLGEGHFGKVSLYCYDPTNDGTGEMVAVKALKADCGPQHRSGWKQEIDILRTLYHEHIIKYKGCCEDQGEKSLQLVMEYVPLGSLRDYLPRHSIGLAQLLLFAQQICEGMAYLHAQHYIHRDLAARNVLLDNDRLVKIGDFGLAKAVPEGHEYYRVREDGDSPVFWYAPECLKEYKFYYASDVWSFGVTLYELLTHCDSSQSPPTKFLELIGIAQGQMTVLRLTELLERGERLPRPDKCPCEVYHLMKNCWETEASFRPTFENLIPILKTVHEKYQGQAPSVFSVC
# Method in brief: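 3-fold series, top 5 μM, 1% DMSO; 10 min preincubation with enzyme, RT. Buffer 50 mM HEPES/10 mM MgCl2/2 mM DTT/0.01% Brij35. Run times JAK1 120 min, JAK2 20, JAK2V617F 30, TYK2 10. Stopped with 50 mM EDTA; IC50 from % inhibition vs no-enzyme and DMSO controls.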
microsomal CLint at 1 μM [1] [µL/min/mg],F [2] [%],IC50 (JAK2) [nM],IC50 (FLT3D835Y) [nM],IC50 (JAK1) [nM],IC50 (JAK2V617F) [nM],microsomal CLint at 1 μM [3] [µL/min/mg],"AUC ([4]; intravenous, 1 mg/kg) [ng·h/mL]","Vd ([4]; intravenous, 1 mg/kg) [L/kg]","clearance ([4]; intravenous, 1 mg/kg) [mL/min/kg]","half-life ([4]; intravenous, 1 mg/kg) [min]","AUC ([4]; oral, 5 mg/kg) [ng·h/mL]","Cmax ([4]; oral, 5 mg/kg) [ng/mL]","half-life ([4]; oral, 5 mg/kg) [min]","AUC(0-t) ([5]; male, Guangxi Bama, minipig, topical or ocular, 25 μL/m^2 at 6 ml/mL, plasma, read-out: Plasma AUC0-last) [ng·h/mL]",Dermis/plasma ratio (AUC) [5] [X],Epiermis/plasma ratio (AUC) [5] [X],IC50 (TYK2) [nM],SMILES
77.2,8.36,< 0.25,7.87,13,< 0.25,61,2880,0.28,6.3,33.6,1170,924,84,,,,,"Cc1cnc(Nc2cnn(C3CCN(C(=O)C4(C)CC4)CC3)c2)nc1-c1ccc(C(=O)NCC#N)cc1 [Example 38, N-(cyanomethyl)-4-(5-methyl-2-((1-(1-(1-methylcyclopropanecarbonyl)piperidin-4-yl)-1H-pyrazol-4-yl)amino)pyrimidin-4-yl)benzamide]"
456,,< 0.25,,15.2,,69.4,,,,,,,,17.3,273,4396,1.07,"Cc1cnc(Nc2cnn(C3CC(C)(C)OC(C)(C)C3)c2)nc1-c1ccc(C(=O)N[C@@H](C)C#N)cc1 [Example 173, (S)—N-(1-cyanoethyl)-4-(5-methyl-2-((1-(2,2,6,6-tetramethyltetrahydro-2H-pyran-4-yl)-1H-pyrazol-4-yl)amino)pyrimidin-4-yl)benzamide]"
